US20240390502A1, “DELIVERY SYSTEMS FOR BIOACTIVE LIPIDS” (The Trustees of Columbia University in The City of New York, priority 2021, published 2024)

Columns and labels:
[1] = system: hypoxic-ischemic brain injury; assay: hypoxic-ischemic brain injury mouse model, cerebral infarct volume; type: in vivo; conditions: direct acute administration of NPD1 (10 ng, 20 ng) after hypoxic-ischemic injury, compared to control (saline) group; FIG. 2A

Protocol for brain mitochondria: FIG. 2C is a western blot mean quantification for BAX 6A7 in naïve (n=6), saline (n=7) and NPD1 (n=8) at 4 h after ischemic injury.

CC/C=C\C[C@H](O)\C=C/C=C/C=C/[C@H](O)C/C=C\C/C=C\CCC(=O)O [NPD1, neuroprotection D1]
cerebral infarct volumes [1]: significant reduction in cerebral infarct volumes | mitochondrial Ca2+ buffering capacity (brain mitochondria; NPD1 treatment after hypoxic-ischemic injury): preserved mitochondrial Ca2+ buffering capacity | mitochondria-related cell death pathways (brain mitochondria; NPD1 treatment, BAX 6A7 western blot at 4 h after ischemic injury (FIG. 2C)): reduced mitochondria-related cell death pathways
